“Also recorded” adds a separate entry of the source. Where two headings read alike, the source gives them in different places.
Columns and labels:
colorectal cancer (CRC) = test: In vivo combination of PBR06 with Cetuximab in WT and mutant KRAS CRC cohorts; design: species or system mice
Text: This synergism is shown with both wild type (WT) and mutant KRAS colorectal cancer (CRC) cohorts (mice).

[1] = tested on: HCT116 p53−/− human CRC cells; test: Immunoblotting of markers in HCT116 p53−/− cells (mutant KRAS) after 24 h drug exposure; type: cell-based
Protocol: In these studies, HCT116 p53−/− human CRC cells were exposed to drug for 24 h, harvested, and the protein levels of various markers were assayed by immunoblotting.

LIM 2405 human CRC cells = test: Immunoblotting of markers in LIM 2405 cells (mutant B-RAF) after 24 h drug exposure; type: cell-based
Protocol: In these studies, LIM 2405 human CRC cells were exposed to drug for 24 h, harvested, and the protein levels of various markers were assayed by immunoblotting.

TSPO [2] = molecular target: T1, TSPO (Rattus norvegicus, UniProt P16257); test: Compartmental binding assay in heavy and light fractions of C6 cell lysate; design: from tissue; host or cells: C6 glioma tumour and normal brain / other tissues of living rats
Text: In order to fully characterize TSPO expression profile in the healthy tissues and C6 cells, this example includes subcellular studies. The present inventors separated two fractions of tissue and C6 cell lysates based on the density difference. […] Based on these two fractions, we performed western blot to determine TSPO expression profile in a variety of healthy tissues and C6 cell lysates. […] Thus, we evaluated the binding potential of VUIIS1008 in different fractions.

TSPO [3] = molecular target: T1, TSPO; test: Radioligand displacement of [3H]PK 11195 in C6 glioma cell / tumor lysate; type: binding; design: from tissue; host or cells: C6 glioma tumour and normal brain / other tissues of living rats; settings: for binding affinity (in words): tumor lysate / C6 cell lysate
Protocol: Given our focus of targeting TSPO expressed in tumors, affinity assays will be conducted in whole and fractionated tumor lysate.
In this Example Glioma-bearing rats were imaged with [^18F]PBR06 in a microPET system. Dynamic acquisitions were acquired simultaneously upon injection of 70-100 MBq/0.2 mL [^18F]PBR06. Over the course of scanning, arterial blood was collected to derive the input function, with HPLC radiometabolite analysis performed on selected samples for arterial input function correction. Compartmental modeling of the PET data was performed using the corrected arterial input function. Specific tumor cell binding of PBR06 was evaluated by radioligand displacement of [^3H]PK 11195 with PBR06 in vitro and by displacement of [^18F]PBR06 with excess PBR06 in vivo. Immediately following imaging, tumor tissue and adjacent healthy brain were harvested for assay of TSPO protein levels by western blotting and immunohistochemistry.
Radioligand displacement of the high-affinity isoquinoline carboxamide TSPO ligand [^3H]PK 11195 was used to evaluate the specific binding of the non-radioactive analogue PBR06 in C6 glioma cell line homogenates in vitro (FIG. 10). […]

DiFi human CRC cells = test: Immunoblotting of markers in DiFi cells (WT KRAS) after 24 hr drug exposure; type: cell-based
Protocol: In these studies, cultured cells were exposed to drug for 24 hr, harvested, and the protein levels of various markers were assayed by immunoblotting.

TSPO [4] = molecular target: T1, TSPO; test: Dynamic microPET of [18F]VUIIS-1008 in C6 glioma-bearing rats, with compartmental modeling and in vivo displacement; design: from tissue; host or cells: C6 glioma tumour and normal brain / other tissues of living rats; settings: 3-tissue model, tumor; mean; listed as VUIIS1008
Protocol: Dynamic microPET imaging can be performed as in tumor-bearing and non-tumor-bearing rats. […] […] For displacement studies, ‘cold’ analog (10 mg/kg) are injected via jugular catheter 30 min after radiotracer administration. Prior to PET scanning, tumors are localized in tumor-bearing rats using MRI, including T2-weighted and diffusion-weighted scans. For longitudinal studies, tumor volumes are measured using a three-dimensional, T2-weighted fast spin-echo sequence on a Varian 9.4 T horizontal bore imaging system.
A 3-compartment, 4-rate constant kinetic model can be used to characterize [^18F]PBR06 pharmacokinetics. […] These rate constants can be used to calculate the total volume of distribution (VT) in tissues of interest. Modeling will be carried out for whole brain (excluding tumor) and tumor by fitting time-activity curves (TACs) of each region.
Before PET imaging with ^18F-VUIIS1008, brain tumors were localized with T2-weighted MRI. […] After the initial spike in radioactivity consistent with tracer injection, ^18F-VUIIS1008 rapidly cleared from the plasma. Imaging-matched brains were processed for staining and immunohistochemistry. Using standard hematoxylin and eosin staining to localize the tumor, the present inventors discovered that TSPO expression was significant higher in tumor than in the adjacent healthy brain.
In order to fully evaluate the novel performance of ^18F-VUIIS1008, we have also determined ^18F-VUIIS 1008 pharmacodynamics with arterial input function.

nuclear TSPO = test: Fractional (nuclear) displacement assay against [3H]PK 11195; settings: fractional nuclear binding assay, displacement of [3H]PK 11195
Protocol: The characterization strategy can begin with a high-throughput fractional displacement assay developed in our laboratory (FIG. 8). This assay capitalizes upon the fact that PK 11195 binds nuclear and mitochondrial TSPO. Fractionated tumor lysate material containing an equivalent distribution of nuclear and mitochondrial TSPO (32) is incubated with [^3H]PK 11195 and candidate ligands. After incubation, protein is collected by centrifugation and microspotted in triplicate into high-density arrays (˜1 uL). The resultant radioligand displacement of each assay is quantified using a high-resolution digital autoradiography imaging system (BiospaceLab).

TSPO [5] = molecular target: T1, TSPO; test: In vivo PET evaluation of [18F]VUIIS-0005 in C6 glioma; design: from tissue; host or cells: C6 glioma tumour and normal brain / other tissues of living rats
Protocol: Dynamic microPET imaging can be performed as in tumor-bearing and non-tumor-bearing rats. […] Dynamic images (120 min) are collected, followed by CT for attenuation correction and cross-platform registration. For displacement studies, ‘cold’ analog (10 mg/kg) are injected via jugular catheter 30 min after radiotracer administration. Prior to PET scanning, tumors are localized in tumor-bearing rats using MRI, including T2-weighted and diffusion-weighted scans. For longitudinal studies, tumor volumes are measured using a three-dimensional, T2-weighted fast spin-echo sequence on a Varian 9.4 T horizontal bore imaging system.

[6] = PBR06 single agent, increasing concentrations, 24 h
[7] = C6 glioma cell lysate / tumor lysate, read-out: IC50, displacement of [3H]PK 11195

## COc1ccc(OC)c(CN(C(=O)CF)c2ccccc2Oc2ccccc2)c1 [PBR06]
Colorectal cancer (CRC); WT and mutant KRAS CRC cohorts (mice)
  effect in combination with Cetuximab (in words): in vivo synergistic effect
Colorectal cancer (CRC); mice
  tolerability (in words): well tolerated among the test subjects
[1]; C225 combined with all but the lowest concentration of PBR06
  cleaved caspase 3 (apoptosis): significant levels of cleaved caspase 3 were induced
[1]; PBR06 in combination with elevated concentrations of C225
  pERK levels: pERK could be fully inhibited at elevated concentrations of C225 with PBR06
[1]; [6]
  pERK levels: modestly elevated levels of pERK
[1]; lowest concentration of C225 combined with PBR06 at all concentrations
  p27 levels (cell cycle arrest): resulted in elevated p27
LIM 2405 human CRC cells; PBR06 in combination with C225, even the lowest dosages of C225
  p21 induction: significant induction of p21
LIM 2405 human CRC cells; [6]
  pERK levels: elevated levels of pERK
TSPO [2]
  binding affinity in heavy (nuclei) and light (mitochondria) fractions (in words): bind to the light fraction selectively with a high binding affinity
TSPO [3]
  IC50: ~12.6 nM
TSPO [3]; [7]
  IC50: 12 nM
TSPO [3]; whole tumor lysate
  binding affinity: ~12 nM
DiFi human CRC cells; PBR06 single agent 10 nM, 24 hr
  p27 levels (cell cycle arrest): significantly elevated p27
DiFi human CRC cells; PBR06 single agent, increasing concentrations 10 nM-10 uM, 24 hr
  pERK levels: modestly elevated levels of pERK
DiFi human CRC cells; WT KRAS CRC cell line
  enhancement in the efficacy of C225 by combination with TSPO ligand: approximately 10 fold
DiFi human CRC cells; lowest dosage of C225 (+) combined with all dosages of PBR06
  p27 levels (cell cycle arrest): significantly elevated levels of p27 could be achieved

## CCc1cc(CC)n2nc(-c3ccc(OCCF)cc3)c(CC(=O)N(CC)CC)c2n1 [VUIIS-1008]
TSPO [4]
  k6: near-zero K6 in the tumor
Nuclear TSPO
  affinity for nuclear TSPO (in words): nanomolar binding affinity; also recorded: targets nuclear TSPO
TSPO [2]
  binding affinity in heavy (nuclei) and light (mitochondria) fractions (in words): comparable high binding affinity of VUIIS1008 in both two fractions
TSPO [3]; C6 cell lysate, against [3H]PK11195
  fold higher binding affinity compared with DPA-714 and PBR06: 30 fold
TSPO [3]; [7]
  IC50: ~1 nM
TSPO [3]; against 3H-PK 11195 in tumor lysate
  IC50 fold lower than PBR06 or DPA-714: approximately 10 fold
TSPO [3]; listed as VUIIS1008
  binding affinity (in words): sub-nanomolar binding affinity

## COc1ccc(OC)c(CN(C(=O)CF)c2ccccc2Sc2ccccc2)c1 [[^18F]VUIIS-0005]
TSPO [5]
  in vivo uptake distribution (in words): primarily confined to tumor tissue, with significantly less normal brain uptake compared to ^18F-PBR06
TSPO [3]
  binding affinity (in words): improved binding affinity in tumor lysate compared to PBR06 or DPA-714

Source: patent publication US9458161B1, “TSPO ligands for cancer imaging and treatment” (Vanderbilt University, priority 2011, dated 2016)
